The term IC50 denotes the point on the concentration scale where inhibition reaches its midpoint. High values mean lower potency, low ones higher potency.

One experiment addresses Full-length WT ClbP (Escherichia coli, UniProt Q0P7K6). The experiment in a line: ClbP molecular (purified protein) enzymatic inhibition assay, fluorogenic substrate. The experiment is classed as biochemical, E. coli. On the procedure: ClbP Molecular (Purified Protein) Assay
1) Full-length WT ClbP was thawed on ice. A diluted enzyme solution (2 nM) was made by mixing 3.57 μL of enzyme with 20 mL of reaction buffer (50 mM Tris pH 8.0, 200 mM NaCl, 0.02% (w/v) n-dodecyl-b-D-maltoside (DDM)).
2) In a 96 well plate, the diluted protein solution (73.5 μL) was mixed with inhibitor (1.5 μL, of varying concentrations, see below) and preincubated for 15 min at room temperature. Then, reaction buffer (75 μL) containing 10 μM fluorogenic substrate was added to initiate the reaction. After addition of substrate, the final concentrations were 1 nM full-length WT ClbP, 5 μM fluorogenic substrate in 50 mM Tris pH 8.0, 200 mM NaCl, 0.02% (w/v) DDM, with either 0, 0.14, 0.41, 1.2, 3.7, 11, 33, or 100 μM inhibitor. For all conditions, the DMSO carryover was 2% (v/v) at the preincubation stage and 1% in the reaction stage. Compound No. III was always present as a control in each plate, and all compounds were tested in singlicate. In previous assays, the Km of the fluorogenic substrate was determined to be approximately 5 μM.
3) Immediately after addition of substrate to enzyme, the plate was transferred into a spectrophotometer held at room temperature. The fluorescence was recorded every 1.5 min for 15 min. The excitation wavelength was 360 nm (20 nm bandwidth), the emission wavelength was 440 nm (20 nm bandwidth), the optics position was bottom, the gain was extended, the light source was a xenon flash lamp, and the read speed was normal.
4) The linear portion of the fluorescence increase is at least from 0-6 min, so this time regime is used. The rate of fluorescence increase (A.U./min) for each well in an inhibitor series was normalized to the 0 μM inhibitor condition. The normalized activity as a function of inhibitor concentration was then fit to a three parameter IC50 curve in Graphpad Prism.
(§1) “A” indicates an IC50 value less than 100 μM, “B” indicates an IC50 between 100 and 300 μM, “C” indicates an IC50 above 300 μM.

Experiment [1] deals with T1, ClbP (Escherichia coli, UniProt Q0P7K6). The experiment in a line: ClbP whole cell activity (inhibition) assay, fluorogenic substrate. It is filed as cell-based, E. coli. The procedure:
Whole Cell Activity Assay
(§2) 1) E. coli ClbP+ were taken from a frozen stock and streaked onto BHI plates. They were grown aerobically at 37° C. overnight in the incubator.
(§3) 1) A single colony was selected from the plate and inoculated into 30 mL LB in a 50 mL conical vial eight times (240 mL total). The bacteria were grown aerobically overnight (16-20 h) at 37° C. on a nutator with rocking.
1) The saturated overnight culture was centrifuged to create a firm pellet (3,200 g, 10 min, 4° C.). In a biosafety cabinet, the supernatant was removed and then the pellet was resuspended in 30 mL sterile PBS.
2) The bacteria were centrifuged again (3,200 g, 10 min, 4° C.). The supernatant was removed, and the pellet was resuspended in sterile PBS buffer (6 mL) in each of the 8 tubes. This fivefold concentrated bacterial solution was the working solution.
3) The bacterial working solution (192 μL) was mixed with inhibitor (6 μL, final concentration was 300, 100, 33.3, 11.1, 3.7, 1.2, 0.4, or 0 μM). Fluorogenic substrate (2 μL, final concentration 5 μM) was immediately added across the plate to initiate the reaction. As a control, each plate contained Compound No. III in this dose response curve. The bacterial concentration was fivefold concentrated compared to the original saturated overnight culture. Carryover from DMSO was 4% (v/v). All compounds were tested in singlicate.
4) The plate was loaded into a spectrophotometer preheated to 37° C. The fluorescence was recorded every 2 min for 46 min. The excitation wavelength was 360 nm (20 nm bandwidth), the emission wavelength was 460 nm (20 nm bandwidth), the optics position was bottom, the gain was 65, the light source was a tungsten bulb, and the read speed was normal.
5) The linear portion of the fluorescence increase was 10-30 min. The rate of fluorescence increase (A.U./min) for each well in an inhibitor series was normalized to the 0 μM inhibitor condition. The normalized activity as a function of inhibitor concentration was then fit to a three parameter IC50 curve in Graphpad Prism.
as §1

The target of experiment [2] is T1, ClbP. Kind of experiment: ClbP cell lysate activity (inhibition) assay, fluorogenic substrate. The experiment is classed as biochemical. Conditions: ClbP Lysate Inhibition Assay: IC50, E. coli ClbP+ lysozyme-EDTA lysates, 5 μM fluorogenic substrate, inhibitor 0-300 μM, 37° C., singlicate. The procedure:
Cell Lysate Activity Assay
as §2, §3
1) The saturated overnight culture was centrifuged to create a firm pellet (3,200 g, 10 min, 4° C.). The supernatant was removed and then the pellet was resuspended in 30 mL sterile PBS.
2) The bacteria were centrifuged again (3,200 g, 10 min, 4° C.). The supernatant was removed, and the pellet was resuspended in sterile PBS buffer (3 mL) in each 8 tubes to make a tenfold concentrated bacterial solution.
3) A lysozyme-EDTA (LE) solution was made in ddH2O (0.05 mg/mL lysozyme, 0.25 M EDTA).
4) For each of the eight tubes, LE solution (3 mL) was mixed with concentrated bacterial solution (3 mL). This mixture was incubated at 37° C. for 30 min to generate the lysates.
5) The lysates (192 μL) were mixed with inhibitor (6 μL, final concentration was 300, 100, 33.3, 11.1, 3.7, 1.2, 0.4, or 0 μM). Fluorogenic substrate (2 μL, final concentration 5 μM) was immediately added across the plate to initiate the reaction. As a control, each plate contained Compound No. III in this dose response curve. The final concentration of bacterial lysates was fivefold concentrated compared to the original saturated overnight culture. Carryover from DMSO was 4% (v/v). All compounds were tested in singlicate.
6) The plate was loaded into a spectrophotometer preheated to 37° C. The fluorescence was recorded every 2 min for 46 min. The excitation wavelength was 360 nm (20 nm bandwidth), the emission wavelength was 460 nm (20 nm bandwidth), the optics position was bottom, the gain was 65, the light source was a tungsten bulb, and the read speed was normal.
7) The linear portion of the fluorescence increase was 0-20 min. The rate of fluorescence increase (A.U./min) for each well in an inhibitor series was normalized to the 0 μM inhibitor condition. The normalized activity as a function of inhibitor concentration was then fit to a three parameter IC50 curve in Graphpad Prism.
as §1

Regarding `CCCCCCCC(=O)N[C@H](CC(N)=O)C(=O)NCCn1cnnc1` [Compound CCXXXIV], the half-inhibitory concentration (IC50) at Full-length WT ClbP was 100 to 300 µM; on ClbP [1] it was less than 100 µM; on ClbP [2] it was greater than 300 µM.

On to `O=C(/C=C/C1CCCCC1)N[C@H](CC(=O)NO)C(=O)NCCc1ccc(O)cc1` [Compound CCXCIV], for which the concentration for half-maximal inhibition (IC50) at Full-length WT ClbP, against ClbP [1] and at ClbP [2] was less than 100 µM throughout.

In the case of `CCCCCCCC(=O)N[C@H](CC(N)=O)C(=O)NCCc1ccc(OC)c(OC)c1` [Compound CCXLIX], the IC50 against Full-length WT ClbP, against ClbP [1] and against ClbP [2] was less than 100 µM each time.

`NC(=O)C[C@@H](NC(=O)CCCC1CCNCC1)C(=O)NCCc1ccc(O)cc1` [Compound CCLII]: the IC50 was 100 to 300 µM against Full-length WT ClbP, greater than 300 µM on ClbP [1] and greater than 300 µM against ClbP [2].

Take `CCCCCCCC(=O)N[C@H](CC(N)=O)C(=O)NCCc1ccc(=O)[nH]c1` [Compound CCXXXV]: the IC50 at Full-length WT ClbP is less than 100 µM; against ClbP [1], less than 100 µM; at ClbP [2], greater than 300 µM.

For `CCCCCCCC(=O)N[C@H](CC(N)=O)C(=O)N[C@H](C)Cc1ccc(O)cc1` [Compound CCXLV], the 50% inhibitory concentration (IC50) on Full-length WT ClbP, against ClbP [1] and against ClbP [2] was less than 100 µM throughout.

With `CCCCCCCC(=O)N[C@@H](CNCCc1ccccc1)CC(N)=O` [Compound IX], the IC50 on Full-length WT ClbP was 100 to 300 µM; against ClbP [1] it was greater than 300 µM; at ClbP [2], greater than 300 µM.

For the molecule `CCCCCCCC(=O)N[C@H](CC(N)=O)C(=O)NCCCc1ccccc1` [Compound CCXIII], the IC50 on Full-length WT ClbP, against ClbP [1] and against ClbP [2] was less than 100 µM in each case.

As to `CCCCCCCC(=O)N[C@H](CC(N)=O)C(=O)N[C@@H](C)Cc1ccccc1` [Compound CCIV], the values for the IC50 at Full-length WT ClbP, against ClbP [1] and at ClbP [2] were 100 to 300 µM, greater than 300 µM and greater than 300 µM, respectively.

On to `CCCCCCCC(=O)N[C@H](CC(N)=O)C(=O)NCCC1CCNCC1` [Compound CCXVIII], for which the IC50 at Full-length WT ClbP was 100 to 300 µM; on ClbP [1], less than 100 µM; against ClbP [2], less than 100 µM.

In the case of `CCCCCCCC(=O)N[C@H](CC(N)=O)C(=O)NCCn1cccn1` [Compound CCXXVIII], the IC50 on Full-length WT ClbP, against ClbP [1] and against ClbP [2] was less than 100 µM throughout.

For the molecule `CNCCCCCC(=O)N[C@H](CC(N)=O)C(=O)NCCc1ccc(O)cc1` [Compound CCC], the concentration for half-maximal inhibition (IC50) against Full-length WT ClbP, against ClbP [1] and against ClbP [2] was greater than 300 µM in each case.

Consider `CCCCCCCC(=O)N[C@H](CC(=O)NC)C(=O)NCCc1ccc(O)cc1` [Compound CCXLVI], for which the concentration for half-maximal inhibition (IC50) is less than 100 µM on Full-length WT ClbP, less than 100 µM against ClbP [1] and 100 to 300 µM at ClbP [2].

Turning to `CCCCCCCC(=O)N[C@H](CC(N)=O)C(=O)NCCc1ccc(C)cc1` [Compound CXCVI], the IC50 against Full-length WT ClbP, at ClbP [1] and against ClbP [2] was less than 100 µM in each case.

Consider `CCCCCCCC(=O)N[C@H](CC(N)=O)C(=O)NCCc1cc(F)c(O)c(F)c1` [Compound CCLVI], for which the 50% inhibitory concentration (IC50) at Full-length WT ClbP, against ClbP [1] and against ClbP [2] was less than 100 µM throughout.

In the case of `CCCCCCCC(=O)N[C@@H](CNC(C)(C)C)CC(N)=O` [Compound VIII], the IC50 at Full-length WT ClbP, against ClbP [1] and against ClbP [2] was less than 100 µM in each case.

With `NC(=O)C[C@@H](NC(=O)CCCCCCC(F)(F)F)C(=O)NCCc1ccc(O)cc1` [Compound CCCV], the half-maximal inhibitory concentration (IC50) against Full-length WT ClbP, against ClbP [1] and against ClbP [2] was less than 100 µM in each case.

For the molecule `CCCCCCCC(=O)N[C@H](CC(N)=O)C(=O)O[C@@H](C)C(=O)OC` [Compound LXXVI], the concentration for half-maximal inhibition (IC50) on Full-length WT ClbP is 100 to 300 µM; on ClbP [1] it was less than 100 µM; at ClbP [2], less than 100 µM.

Consider `CCCCCCCC(=O)N[C@H](CC(N)=O)C(=O)NCCc1ccccn1` [Compound CCV], for which the IC50 against Full-length WT ClbP, against ClbP [1] and against ClbP [2] was less than 100 µM in each case.

Regarding `O=C(/C=C/CC1CCCCC1)N[C@H](CC(=O)NO)C(=O)NCCc1ccc(O)cc1` [Compound CCXCVII], the half-inhibitory concentration (IC50) at Full-length WT ClbP, against ClbP [1] and against ClbP [2] was less than 100 µM in each case.

For `CCCCCCCC(=O)N[C@](C)(CC(N)=O)C(=O)NCCc1ccccc1` [Compound LXX], the half-inhibitory concentration (IC50) at Full-length WT ClbP is 100 to 300 µM; against ClbP [1], greater than 300 µM; against ClbP [2], greater than 300 µM.

As to `CCCCCCCC(=O)N[C@H](CC(N)=O)C(=O)NCCc1ccccc1` [Compound III], the IC50 against Full-length WT ClbP, on ClbP [1] and against ClbP [2] was less than 100 µM in each case.

`CCCCCCCC(=O)N[C@H](CC(=O)NOC)C(=O)NCCc1ccc(O)cc1` [Compound CCLXXXV]: the figures for the IC50 against Full-length WT ClbP, at ClbP [1] and at ClbP [2] were less than 100 µM, 100 to 300 µM and 100 to 300 µM, respectively.

Turning to `CCCCCCCC(=O)N[C@@H](CN[C@@H](C)C(=O)OC)CC(N)=O` [Compound CCLXXX], the IC50 is 100 to 300 µM against Full-length WT ClbP, greater than 300 µM against ClbP [1] and greater than 300 µM at ClbP [2].

As for `CCCCCCCC(=O)N[C@H](CC(N)=O)C(=O)NCCc1ccc(F)cc1` [Compound CCLXXIV], the IC50 against Full-length WT ClbP, at ClbP [1] and against ClbP [2] was less than 100 µM throughout.

As for `CCCCCCCC(=O)N[C@H](CC(N)=O)C(=O)NCCOc1c(F)cccc1F` [Compound CCLV], the IC50 against Full-length WT ClbP, on ClbP [1] and against ClbP [2] was less than 100 µM each time.

Consider `O=C(C[C@@H](NC(=O)CCCC1CCCC1)C(=O)NCCc1ccc(O)cc1)NO` [Compound CCXCIX], for which the 50% inhibitory concentration (IC50) on Full-length WT ClbP, on ClbP [1] and on ClbP [2] was less than 100 µM throughout.

On to `CCCCCCCC(=O)N[C@H](CC(N)=O)C(=O)N(CCc1ccc(O)cc1)C(C)C` [Compound CCLXXVI], for which the IC50 against Full-length WT ClbP is less than 100 µM; on ClbP [1], greater than 300 µM; at ClbP [2], less than 100 µM.

Source of the values: patent US20230234917A1, “ASPARAGINE DERIVATIVES AND METHODS OF USING SAME” (priority 2020, published 2023).
